Measured values taken from patent US20240277851A1, “siRNA DELIVERY VECTOR” (COUNCIL OF SCIENTIFIC & INDUSTRIAL RESEARCH, priority 2021, published 2024).

Legend:
MnSOD = MnSOD gene silencing by immunoblotting; assay type: cell-based; settings: MDA-MB-231, siMnSOD 40 nM, 48 h
Protocol: FIG. 4: Mito-Esc/siMnSOD complex by depleting MnSOD levels exacerbates Mito-Esc-induced breast cancer cell death. (A) MDA-MB-231 cells were incubated either with Mito-Esc/siMnSOD (40 nM) complex or with lipofectamine-2000/siMnSOD complex for 48 h and cell viability was measured by trypan blue dye exclusion assay. (B) MDA-MB-231 cells were transfected with siMnSOD (40 nM) with indicated delivery systems for 48 h and MnSOD protein levels were measured by immunoblotting. Parenthesis indicates the relative expression of MnSOD normalized to GAPDH (loading control).
At the end of the treatments, cell pellets were lysed in a RIPA buffer containing protease inhibitor cocktail, phosphatase inhibitor cocktail-2, 3. Proteins were resolved by SDS-PAGE and blotted onto a nitrocellulose membrane and blocked with 5% bovine serum albumin, washed, and incubated with primary antibodies (1:1000) over night at 4° C. The membranes were then washed and incubated for 1 h with anti-rabbit/mouse IgG horseradish peroxidase linked secondary antibodies (1:5000). ECL reagent (Amersham GE) was applied on the membrane prior to developing with a chemiluminescent system (Bio-Rad).
Cells were cultured in 12-well plates at a density of 3×10^4 cells per well (containing a glass coverslip the day before use). […]

MDA-MB-231 cells = assay: Intracellular delivery of Cy-5 siRNA by confocal imaging, MDA-MB-231; assay type: cell-based; settings: MDA-MB-231, Cy-5 siRNA 40 nM, 24 h
Protocol: (§1) FIG. 5: Detection of intracellular delivery of Cy-5 siRNA by Mito-Esc using confocal imaging. MDA-MB-231 cells were transfected with Cy-5 labelled siRNA (40 nM) with indicated delivery systems for 24 h. Transfection efficacy was evaluated using Confocal Microscopy. Cy-5 fluorescence in the cytosol is shown in blue color (Scale bar 10X). Briefly, MDA-MB-231 cells were seeded on a coverslip in 12-well plates at a density of 3×10^4 cells per well in 1 mL complete DMEM and cultured for 12 h. Fluorescent (Cy-5) siRNA was complexed either with lipofectamine-2000 (positive control) or with Mito-Esc (2.5 μM) or parent esculetin (2.5 μM) or with different cationic lipids in serum free DMEM medium for 30 min before addition into the plates. These lipoplexes were added to the cells and incubated for 6 h. After that, cells were washed twice with PBS and fixed with 4% paraformaldehyde for 15 min. Finally, slides were mounted and the cells were imaged using a confocal microscope. Florescent labeled siRNA with Mito-Esc lipoplexes were prepared as described above and incubated with MDA-MB-231 cells for 24 h. The cells were stained by DAPI to stain the nucleus. The cells were mounted and observed under confocal microscope (Olympus, Tokyo, Japan).

siRNA = assay: Agarose gel electrophoresis retardation assay (siRNA binding); settings: earlier findings, FIG. 2D; ratios 1:1 to 7:1
Protocol: Gel electrophoresis was performed with agarose gel (1.5% w/v) in tris-acetate-EDTA buffer (40 mM) with one drop of ethidium bromide added (concentration of EtBr stock solution: 0.625 mg/ml in H2O), at 100 V for 30 min. The siRNA lipoplexes were prepared by complexing siRNA with Mito-Esc, Mito-isoscopoletin and octyl TPP cation at described P^+/P^− ratios. The samples were incubated for 30 min at room temperature prior to addition into a well. The siRNA bands were visualized under UV illumination at 365 nm.
Mito-Esc nanoparticle solutions were prepared at various concentrations according to the desired final P+:P− charge ratio. Twenty μL solution of the Mito-Esc/siRNA complex was prepared to maintain a constant amount of siRNA in each solution (1 μg in 10 μL), and varying the amount of Mito-Esc according to the P+:P− charge ratio. The prepared mixtures were gently vortexed for 5 min. and incubated for 30 min at room temperature for complex formation.
The efficiency of Mito-Esc to bind siRNA was checked by agarose gel electrophoresis. Also, in order to assess the importance of hydrogen bonding in forming the stable siRNA complexes, Mito-isoscopoletin was synthesized by protecting the dihydroxy group with methyl group. Octyl TPP cation was used as a negative control.

[1] = system: MDA-MB-231 breast cancer cells; assay: Trypan blue dye exclusion cell viability, MDA-MB-231; assay type: cell-based; settings: MDA-MB-231, 24 h and 48 h, FIG. 1A
Protocol: FIG. 1: Mito-Esc dose- and time-dependently induces breast cancer cell death without affecting normal cell viability. (A) MDA-MB-231 breast cancer cells were treated with various concentrations of Mito-Esc (1.25-7.5 μM). Cell viability was measured by trypan blue dye exclusion assay at 24 h and 48 h. (B) Same as A, except that cells were treated with parent Esc (5-50 μM). (C) Same as A, except that MCF10A (normal mammary epithelial) cells were treated with Mito-Esc (5-50 μM).
MDA-MB-231 (a Triple negative breast cancer cell line, ATCC) and MCF-10A cells (normal mammary epithelial cells, ATCC) were grown in Dulbecco's Modified Eagle's medium (DMEM) containing 10% FBS, 1% (v/v) Sodium Pyruvate (100 mM), Sodium bicarbonate (26 mM), L-glutamine (4 mM), penicillin (100 units/ml), and streptomycin (100 μg/ml). Cells were maintained in an incubator at 37° C. in a humidified atmosphere of 5% CO2 and 95% air.
To evaluate cytotoxicity of the Mito-Esc or Mito-Esc lipoplexes with siMnSOD, a trypan blue dye exclusion assay was used. Briefly, cells were seeded in a 12-well plate at a density of 3×10^4 cells per well and cultured overnight before transfection. […] The cell suspension (10 μl) was mixed with an equal amount of trypan blue and counted using an automated cell counter (Countess, Life Technologies). […]

[2] = system: HeLa (cervical) cancer cells; assay: Sulforhodamine B cytotoxicity, HeLa; assay type: cell-based; settings: 24 h
Protocol: (§2) Cytotoxicity of Mito-Esc on different cancer cell lines HeLa (cervical), HepG2 (liver), MCF-7 (ER+ve breast), A549 (lung), DU-145 (prostate) cancer cells and MCF-10A (normal mammary epithelial cells) were determined by treating with Mito-Esc (0.5-100 μM) for 24 h and cell viability was measured by Sulforhodamine B assay.

[3] = system: HepG2 (liver) cancer cells; assay: Sulforhodamine B cytotoxicity, HepG2; assay type: cell-based; settings: HepG2, 24 h
Protocol: as §2

[4] = system: MCF-7 (ER+ve breast) cancer cells; assay: Sulforhodamine B cytotoxicity, MCF-7; assay type: cell-based; settings: MCF-7, 24 h
Protocol: as §2

A549 (lung) cancer cells = assay: Sulforhodamine B cytotoxicity, A549; assay type: cell-based; settings: A549, 24 h
Protocol: as §2

[5] = system: DU-145 (prostate) cancer cells; assay: Sulforhodamine B cytotoxicity, DU-145; assay type: cell-based; settings: DU-145, 24 h
Protocol: as §2

[6] = system: MCF-10A (normal mammary epithelial cells); assay: Sulforhodamine B cytotoxicity, MCF-10A; assay type: cell-based; settings: 24 h
Protocol: as §2

[7] = Size and surface charge of Mito-Esc nanoparticles (DLS, zeta potential); assay type: physicochemical; settings: aqueous solution (1% EtOH)
Protocol: The size (hydrodynamic diameter) and the surface charge (zeta potentials) of a Mito-Esc nanoparticle were measured by photon correlation spectroscopy and the electrophoretic mobility on a Zetasizer 3000HSA (Malvern, UK). The size was measured in deionized water with a sample refractive index of 1.33, a viscosity of 0.88 cP and a temperature of 25° C. The size was measured in triplicate. The zeta potential was measured using the following parameters: viscosity, 0.88 cP; dielectric constant, 78.5, and temperature, 25° C.
(§3) The self-assembling properties of Mito-Esc were explored. The particle size of an aqueous solution (1% EtOH) of Mito-Esc was measured using Dynamic light scattering (DLS). Mito-Esc formed nanosized particles of size 166±30 nm and surface charge of 33±0.4 mV (FIG. 2A). The size and morphology of self-assembled nanoparticles of Mito-Esc was investigated by scanning and by transmission electron microscopy respectively. Mito-Esc formed spherical shaped nanoparticles of <200 nm (FIGS. 2B & 2C).

[8] = Scanning and transmission electron microscopy of nanoparticles; assay type: physicochemical; settings: spherical shaped nanoparticles
Protocol: Transmission electron microscopy studies were performed on a Tecnai T12 microscope (FEI) at 120 kV, and images were taken using an SIS CCD camera; Samples were negatively stained with ammonium molybdate on 200 or 400 mesh carbon-coated copper grids (Ted Pella, Inc.). Before recording micrographs, the grids were air dried.
Field emission scanning electron microscopic (FESEM) analysis of a Mito-Esc nanoparticle was performed on a Carl Zeiss SIGMA HD field-emission scanning electron microscope.
as §3

MCF-10A cells = assay: Intracellular delivery of Cy-5 siRNA by confocal imaging, MCF-10A; assay type: cell-based
Protocol: FIG. 6: Comparison of intracellular delivery of Cy-5 siRNA using confocal imaging. MCF-10A cells were transfected with Cy-5 labelled siRNA using different delivery mechanisms. Transfection efficacy was evaluated using Confocal Microscopy. Cy-5 fluorescence in the cytosol is shown in blue.
as §1, with “Briefly,” for “FIG. 5: Detection of intracellular delivery of Cy-5 siRNA by Mito-Esc using confocal imaging. MDA-MB-231 cells were transfected with Cy-5 labelled siRNA (40 nM) with indicated delivery systems for 24 h. Transfection efficacy was evaluated using Confocal Microscopy. Cy-5 fluorescence in the cytosol is shown in blue color (Scale bar 10X). Briefly,”

[9] = system: MDA-MB-231 cells in mammary fat pad; assay: In-vivo orthotopic MDA-MB-231 tumor model; settings: SCID mice, i.p. 3 and 6 mg/kg for two weeks
Protocol: Inoculation of MDA-MB-231 cells into mammary fat pad of SCID mice: 6-week-old female SCID mice were used for the experiment. Initially, 10 nM Qtracker labeling solution (Qtracker Cell Labeling Kit, Invitrogen Q25071MP) was prepared by pre-mixing 10 μL each of Component A and Component B in a 1.5 mL microcentrifuge tube and incubated for 5 minutes at room temperature. This mixture was added to 0.2 mL of fresh complete growth medium and vortexed for 30 seconds and added to a 75-cm2 tissue culture flask containing MDA-MB-231 cells and incubated in a 37° C., 5% CO2 incubator overnight. Sub-confluent labeled cells were harvested and counted.
Cells (1×10^6) were suspended in 0.1 ml of serum free medium. To this 0.1 ml of matrigel was added and gently mixed to get a uniform cell suspension. The SCID mice were anesthetized with ketamine/xylazine cocktail (50 μL/20 g mice) and each mouse was implanted with above mentioned 1×10^6 Q-Tracker labelled MDA-MB-231 cells into the 4th pair of mammary fat pad orthotopically and sutured the fat pad after the inoculation of cells. The incision site was dressed with povidone-iodine to prevent infection every day until the incision healed. Mice were checked to see development of tumors and treatment began once the tumors reached a volume of ≥300 mm^3. […] On the day of sacrifice, tumor volumes were measured using Vernier calipers. […]

Molecule	MnSOD protein levels (MnSOD)	intracellular delivery of Cy-5 siRNA (MDA-MB-231 cells)	P+/P− charge ratios at which siRNA is bound (migration retarded) (siRNA)	concentrations causing dose-dependent cell death [1] [µM]	IC50 [2] [µM]	IC50 [3] [µM]	IC50 [4] [µM]	IC50 (A549 (lung) cancer cells) [µM]	IC50 [5] [µM]	IC50 [6] [µM]	particle size (DLS) [7] [nm]	surface charge [7] [mV]	nanoparticle size by SEM/TEM [8] [nm]	efficiency of siRNA delivery (MCF-10A cells)	breast cancer progression (tumor volume, weight) [9]
O=c1ccc2cc(O)c(O)cc2o1 [parent esculetin, esculetin]	neither parent esculetin nor octyl TPP cation complexes were able to decrease MnSOD expression	failed to deliver the Cy-5 siRNA intracellularly													
(8-(6,7-dimethoxy-2-oxo-2H-chromen-4-yl)octyl)triphenylphosphonium [Mito-isoscopoletin]		failed to deliver the Cy-5 siRNA intracellularly	did not bind the siRNA												
O=c1cc(CCCCCCCC[P+](c2ccccc2)(c2ccccc2)c2ccccc2)c2cc(O)c(O)cc2o1 [Mito-Esc, (8-(6,7-dihydroxy-2-oxo-2H-chromen-4-yl)octyl) triphenylphosphonium]		significantly caused the intracellular delivery of Cy-5 siRNA		1.5 to 7.5	4.9	10	4.8	1.8	15.5	> 100	166±30	33±0.4	< 200	lower than Lipofectamine-2000	regress breast cancer progression
